9 compounds from patent US5091365A, “Cyclic peptides as promoters of absorption on administration onto the mucosa” (Hoechst Aktiengesellschaft, priority 1987, dated 1992) can be followed below.

Data set [1] relates to female rats. Description: Ovulation induction in PMSG-pretreated, phenobarbital-blocked female rats (number of ova counted). Format: in vivo, rat. On the procedure: 1. The effect of cyclic peptides on the nasal and rectal absorption of LHRH (gonadorelin) and LHRH agonists (for example buserelin) was investigated in the following way: female rats weighing 60 g are pretreated with horse serum gonadotropin (PMSG) 10 I.U. (day 1, 09:00) for follicle stimulation. On the third day after the pretreatment, the ovulation which spontaneously occurs at about 14:00 is suppressed by injection of phenobarbital (4 mg/animal i.p. around 13:00). The treatment with the test substance (for example LHRH or buserelin intranasally in a physiologically tolerated buffer solution of pH 3.0-7.5 in a volume of 2-20 μl, rectal administration of suppositories etc.) is carried out at about 13:30. This treatment induces ovulation dose-dependently. On the next day of the experiment (day 4) the animals are sacrificed at about 09:00, both uterine tubes are dissected out and, after staining with patent blue, the number of ova is counted under a stereomicroscope (ovulatory effect of the test substances). The increase in the absorption of the test substances from mucosal surfaces is assessed by comparison of the effect on ovulation in the absence or after addition of, for example, bacitracin 0.001-0.05M. It is also possible to use as parameter of the effect in the same design of experiment the dose-dependent increase in luteinizing hormone (LH) in the serum one hour after treatment. [Sandow J, von Rechenberg W & Jerzabek G (1976): The effect of LHRH, prostaglandins and synthetic analogues of LHRH on ovarian metabolism. Europ. J. Obstetr. Gynaec. Reprod. Biol. 6, 185-190.]

Data set [2] concerns rat. Description: Increase of absorption of peptide active substances from the mucosa in the rat. Format: in vivo. On the procedure: 1. The effect of cyclic peptides on the nasal and rectal absorption of LHRH (gonadorelin) and LHRH agonists (for example buserelin) was investigated in the following way: female rats weighing 60 g are pretreated with horse serum gonadotropin (PMSG) 10 I.U. (day 1, 09:00) for follicle stimulation. On the third day after the pretreatment, the ovulation which spontaneously occurs at about 14:00 is suppressed by injection of phenobarbital (4 mg/animal i.p. around 13:00). […] On the next day of the experiment (day 4) the animals are sacrificed at about 09:00, both uterine tubes are dissected out and, after staining with patent blue, the number of ova is counted under a stereomicroscope (ovulatory effect of the test substances). The increase in the absorption of the test substances from mucosal surfaces is assessed by comparison of the effect on ovulation in the absence or after addition of, for example, bacitracin 0.001-0.05M. […]
2. […] It emerged that both bacitracin and colistin and polymyxin B (0.01M) increased the effect of a dose of 10 ng of buserelin, measured by the areas under the curve, by a factor of 3.3-14.
3. […] GH in serum is determined 15-120 minutes after the treatment (for example nasally or rectally) by a specific radioimmunoassay.

The test system of data set [3] is female rats. Description: Release of growth hormone (GH) in serum of PMSG-pretreated rats, radioimmunoassay. Particulars: for finding with other GHRH agonists on addition of bacitracin (GH release): compared with (DAla2) GRF-29 amide: 40 μg without = 20 μg with 0.001M bacitracin. Format: in vivo, rat. On the procedure: 3. The effect of cyclic peptides of the nasal absorption of GHRH analogs was investigated in the following way: In the same model as described for the ovulatory effect of LHRH, it is possible on the third day after the pretreatment with PMSG to test the release of growth hormone (GH). GH in serum is determined 15-120 minutes after the treatment (for example nasally or rectally) by a specific radioimmunoassay.

The test system of data set [4] is male rats. Nature of the data set: Corticosterone release in serum of male rats after nasal ACTH analog, radioimmunoassay. It counts as in vivo, rat. Particulars: over 3 h after nasal alsactide (ACTH-17) 5 μg in the presence of 0.01M bacitracin. The procedure: 4. The effect of cyclic peptides on the absorption of ACTH (corticotropin) and ACTH analogs was investigated in male rats (weighing 100 g) after treatment under anesthesia with pentobarbital or ether. The corticosterone release in the serum was determined by a specific radioimmunoassay as a parameter of the effect. It emerged that the corticosterone release over 3 h after nasal treatment, for example, with the ACTH analog alsactide (ACTH-17) in a dose of 5 μg was increased by a factor of 5 in the presence of 0.01M bacitracin.

Data set [5] concerns female rats. Description: Increase in luteinizing hormone (LH) in serum, same design of experiment in female rats. Format: in vivo, rat.
Data set [6] relates to rectal mucosa. Description: Rectal mucosa tolerability of hard fat suppositories in rats. It counts as in vivo, rat. Particulars: hard fat suppositories with 1 mg of bacitracin, rats weighing 100 g, 3 hours after treatment. The procedure: Furthermore, the compounds according to the invention cause no sensation of pain in humans on nasal administration of 1 to 200 μl of a concentration of 10^-5 to 10^-1 mol/l. […] Local administration of the same concentration by vaginal, rectal or buccal drug forms (i.e., for example, films, tablets, suppositories) likewise causes no irritation to the mucosa.

The subject of data set [7] is male rats. Description: LH release in male rats under urethane anesthesia over 6-7 hours. Format: in vivo, rat. The note with it: aid 0.01M, 10 ng of buserelin. On the procedure:
2. An example of another method suitable for detecting the enhancement of the effect due to increased absorption is determination of the LH release in male rats (weighing 100 g, under urethane anesthesia). […] It emerged that both bacitracin and colistin and polymyxin B (0.01M) increased the effect of a dose of 10 ng of buserelin, measured by the areas under the curve, by a factor of 3.3-14.

In data set [8] the test system is male rats. Description: Serum calcium concentration in male rats after intranasal salmon calcitonin. Format: in vivo, rat. Particulars: 0.6-1.2 μg of salmon calcitonin intranasal, addition of 0.01M bacitracin, 1-6 h. On the procedure:
5. The effect of cyclic peptides on the absorption of calcitonin and calcitonin analogs (for example salmon calcitonin) can be investigated on male rats weighing 100 or 200 g, for example after intranasal treatment with salmon calcitonin, by determination of the serum calcium concentration over a period of 1-6 h after the treatment. It was found in this that the effect of 0.6-1.2 μg of salmon calcitonin was increased by a factor of 4-6 by addition of, for example, 0.01M bacitracin.

Data set [9] has as its system isolated gastric mucosa of the guinea pig. Nature of the data set: Tolerability: patent blue permeation through isolated guinea pig gastric mucosa. An excerpt:
6. The tolerability of various cyclic peptides as are used as aids to increase absorption can be tested on the isolated gastric mucosa of the guinea pig. [Wirth K, Bickel M & Deutschlander N (1987): Patent blue permeation through the isolated guinea pig gastric mucosa: a quantitative method for the assessment of gastric irritants. Med. Sci. Res. 15, 881.]

Take `CC(C)C[C@H](NC(=O)CNC(=O)[C@H](Cc1ccc(O)cc1)NC(=O)[C@H](CO)NC(=O)[C@H](Cc1c[nH]c2ccccc12)NC(=O)[C@H](Cc1cnc[nH]1)NC(=O)[C@@H]1CCC(=O)N1)C(=O)N[C@@H](CCCNC(=N)N)C(=O)N1CCC[C@H]1C(=O)NCC(N)=O` [LHRH, LHRH (gonadorelin)]: in data set [1] (LHRH in physiological saline containing 0.1% gelatin), the “dose of LHRH giving the same ovulatory effect, without aid” value is 8 µg.

Consider `CCNC(=O)[C@@H]1CCCN1C(=O)[C@H](CCCNC(=N)N)NC(=O)[C@H](CC(C)C)NC(=O)[C@@H](COC(C)(C)C)NC(=O)[C@H](Cc1ccc(O)cc1)NC(=O)[C@H](CO)NC(=O)[C@H](Cc1c[nH]c2ccccc12)NC(=O)[C@H](Cc1cnc[nH]1)NC(=O)[C@@H]1CCC(=O)N1` [buserelin], for which, in [1] (buserelin in physiological saline containing 0.1% gelatin), the “dose of buserelin giving the same ovulatory effect, without aid” value was found to be 80 ng. Also, the “dose of buserelin at which ovulation occurred, rectal suppositories, without bacitracin” value in data set [1] (rectal treatment of rats with buserelin suppositories, no aid) was 400 ng.

For the compound `C[C@H](CCC(=O)O)[C@H]1CC[C@H]2[C@@H]3CC[C@@H]4C[C@H](O)CC[C@]4(C)[C@H]3C[C@H](O)[C@]12C` [deoxycholic acid], the “concentration required to increase absorption in the rat” value in data set [2] (rat, in vivo) is listed as 0.02 M.

Regarding (DAla2) GRF-29 amide, in [3] (i.n., without bacitracin), the “dose of (DAla2) GRF-29 amide giving corresponding GH release effect, without bacitracin” value is 40 µg.

As to (DAla2, NLeu27) GRF-29 amide, the “finding with other GHRH agonists on addition of bacitracin (GH release)” value in data set [3] was “similar”.

As to (Leu27, Gly45) GHRH (1-44), the “finding with other GHRH agonists on addition of bacitracin (GH release)” value in data set [3] was “similar”.

In the case of bacitracin, in data set [4], the “increase of corticosterone release, factor” value was 5. For the same compound, the “enhancement of absorption, factor, from LH release by buserelin” value in data set [5] (buserelin in the presence of 0.001M bacitracin) is reported as “more than 3”. Also, the “increase of absorption of LHRH agonists, GHRH agonists and similar active substances, factor” value in data set [2] (addition of 0.001M bacitracin) is on record as 3-4. Besides, the “dose of (DAla2) GRF-29 amide giving corresponding GH release effect, with bacitracin” value in [3] (i.n., addition of 0.001M bacitracin, equals effect of 40 μg without) turned out to be 20 µg. The “inflammatory change of the rectal mucosa” value in data set [6] is “no inflammatory change”. Further, the “dose of LHRH giving the same ovulatory effect, with aid” value in [1] (LHRH in a solution of 0.001M bacitracin, equals effect of 8 μg without aid) is 2 µg. For the same compound, in data set [1] (buserelin in a solution of 0.001M bacitracin, equals effect of 80 ng without aid), the “dose of buserelin giving the same ovulatory effect, with aid” value came out at 20 ng. The “dose of buserelin at which ovulation was induced, rectal suppositories, after addition of bacitracin” value in data set [1] (rectal treatment of rats with buserelin suppositories plus bacitracin) is 50 ng. The “increase of the effect of buserelin on LH release, areas under the curve, factor” value (“increase of the effect of buserelin” for short) in [7] is recorded as 3.3-14. Further, the “increase of the effect of salmon calcitonin (serum calcium), factor” value in [8] was 4-6. For the same compound, in data set [9], the “concentration that can be placed on the mucosa without damage” value is recorded as “more than 0.006 M”.

For the compound colistin, the “enhancement of LHRH effect on investigation of the LH release” value in data set [5] (LHRH in the presence of 0.001M colistin) is given as “this effect also emerged”. In addition, the “increase of the effect of buserelin” value in [7] is 3.3-14.

As for polymyxin B, in data set [7], the “increase of the effect of buserelin” value was 3.3-14.
